The target of this assay is T1, ETV1 (ETS variant 1) (Homo sapiens, UniProt P50549).
T1 sequence (P50549 1-477): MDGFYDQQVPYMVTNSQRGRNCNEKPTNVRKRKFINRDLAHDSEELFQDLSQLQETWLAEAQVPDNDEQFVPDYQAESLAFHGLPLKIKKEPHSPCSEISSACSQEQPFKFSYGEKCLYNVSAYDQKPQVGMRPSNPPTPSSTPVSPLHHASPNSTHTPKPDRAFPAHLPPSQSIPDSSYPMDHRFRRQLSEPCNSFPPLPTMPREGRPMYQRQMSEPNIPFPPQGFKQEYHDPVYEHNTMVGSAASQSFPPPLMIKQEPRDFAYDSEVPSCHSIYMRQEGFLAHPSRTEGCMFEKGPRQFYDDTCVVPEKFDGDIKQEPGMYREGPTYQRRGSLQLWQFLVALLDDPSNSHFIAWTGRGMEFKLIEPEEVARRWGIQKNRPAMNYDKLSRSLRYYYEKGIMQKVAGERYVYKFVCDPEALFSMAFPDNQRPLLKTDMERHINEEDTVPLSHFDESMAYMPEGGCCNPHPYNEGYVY
As to the kind of experiment: SPR. The class given is binding.

Drawing on paper PMC4154495 (Molecular cancer therapeutics, 2014), this text covers Kd for one compound.

In general, Kd refers to the concentration at which binding is half-saturated. On to `COc1ccc(Nc2nc(N)nc(CN3CCCCC3)n2)cc1` [compound 1, BRD32048], for which the Kd stood at 17.1 µM.
